From patent US12544343B2, “Treatment of inflammatory condition in mucous membrane or skin” (MUCOCORT AB, priority 2019, dated 2026)
Entries after “also recorded” stand apart in the source; their conditions may differ.

Columns and labels:
TNF-α production = TNF-α production by LPS-stimulated human PBMC (ELISA); format: cell-based
Method: (§1) Human venous blood was sampled and collected in heparinized vials and mix well by gently inverting the tubes several times. Human peripheral blood mononuclear cells (PBMCs) were isolated by gradient centrifugation using Ficoll-Histopaque®. Cells were washed (centrifuged at 400×g for 10 min) with sterile phosphate-buffered saline (PBS). PBS was discarded, and the cell pellet re-suspended in sterile Dulbecco's Modified Eagle's Medium (DMEM). Cells were then counted by haemocytometer using white blood cell (W.B.C.) diluting fluid: 15 μl of cell suspension was added to 15 μl trypan blue and mixed well. The cell suspension was loaded in a haemocytometer and the cells were counted. The cell concentration was adjusted at 2×10^6 cells/ml with DMEM supplemented with 1% of penicillin-streptomycin solution and 5% human serum. The approximate yield of cells varied between 107-10^8 cells/ml. 1 ml of cell suspension was seeded in a 24 well culture plate. 1 ml propane-1,2-diol diluted in DMEM was added at various concentrations (from 0 to 100 mM). Phytohemagglutinin (PHA), 15 μl, was added to a final concentration of 1 μg/ml. When the effect of different concentrations of PHA were studied (FIG. 1), the range used varied from 0 to 25 μg/ml. The plate was incubated for 24 h at +37° C. and in 5% CO2. The plate was then frozen at −20° C. until further analysis. After thawing the samples, an enzyme-linked immunosorbent assay (ELISA) was performed according to the manufacturer's specifications. In vitro culture of human PBMCs was performed as described above in Example 1. In brief, 1 ml propane-1,2-diol was added to 1 ml PBMC to obtain a range of 30 final concentrations (0 to 100 mM). 15 μl LPS was added to a final concentration of 100 nM and the cell suspension was incubated at 37° C. in 5% CO2 for 24 h. The plate was then frozen in −20° C. until the ELISA analysis. TNF-α production was determined by ELISA using procedures (BioSite, Sweden; Art. No: EA102165) according to the manufacturer's specifications.

IL-2 production = IL-2 production by PHA-stimulated human PBMC (ELISA); format: cell-based; conditions: 100 mM propane-1,2-diol, 1 μg/ml PHA-stimulated PBMC, FIG. 4
Method: as §1, with “[…] IL-2” for “The plate was incubated for 24 h at +37° C. and in 5% CO2. The plate was then frozen at −20° C. until further analysis. After thawing the samples, an enzyme-linked immunosorbent assay (ELISA) was performed according to the manufacturer's specifications. In vitro culture of human PBMCs was performed as described above in Example 1. In brief, 1 ml propane-1,2-diol was added to 1 ml PBMC to obtain a range of 30 final concentrations (0 to 100 mM). 15 μl LPS was added to a final concentration of 100 nM and the cell suspension was incubated at 37° C. in 5% CO2 for 24 h. The plate was then frozen in −20° C. until the ELISA analysis. TNF-α”

pig oral mucosa = assay: Dehydration effect towards oral mucosa (immersion of tissue in solution)
Method: Fresh pig oral mucosa (300-700 mg) was equilibrated at room temperature at 40% relative humidity (RH), weighed and immersed in 5 ml of the investigated solution for 20 h at room temperature (RT, ˜20-25° C.). The tissue was removed from the solution, dried by blotting and weighed. Finally, it was dried at +40° C. for 24 h.

PBMC = format: cell-based, human
Method: This Example investigated whether the inhibition of TNF-α in Example 2 and/or IL-2 in Example 3 was due to cell death of the PBMCs.
PBMCs were isolated from one donor as described in Example 1. 1 ml of 2×10^6 PBMC cells were added to 12 wells in a 24-well plate. 1 ml of 2000 mM propane-1,2-diol was added to two of the wells to get a final concentration of 1000 mM (8% propane-1,2-diol). The same procedure was used to obtain decreasing concentrations of propane-1,2-diol (500 mM (4% propane-1,2-diol), 250 mM (2% propane-1,2-diol), 125 mM (1% propane-1,2-diol), 62.5 mM (0.5% propane-1,2-diol)). After 24 hrs incubation at 37° C. and 5% CO2, 15 μl of each cell culture was mixed with 15 μl of tryptan blue and dead cells out of 100 cells were counted under a light microscope.

CC(O)CO (stereo not shown) [propane-1,2-diol] was tested, and the “inhibition of TNF-α, concentration dependence” value (TNF-α production; 0 to 100 mM, LPS-stimulated PBMC from 4 individuals, FIGS. 1A-1D) was “concentration-dependent inhibition”, the “inhibition of TNF-α at 100 mM” value (TNF-α production; 100 mM propane-1,2-diol, LPS-stimulated PBMC from 4 individuals, 24 h, FIGS. 1A-1D) was “maximal inhibition; also recorded: strong inhibition” and the “inhibition of TNF-α in PBMC from 12 individuals” value (TNF-α production; 100 mM, LPS-stimulated PBMCs from 12 different individuals, FIG. 2) was “inhibition was observed in all 12 individuals”. The “IL-2 production reduced, patient A” value (IL-2 production; patient A) was 53%, the “IL-2 production reduced, patient B” value (IL-2 production; patient B) was 64% and the “dehydration effect at 1% and 5%” value (pig oral mucosa; propane-1,2-diol solutions at concentration of 1% and 5%) was “No dehydration effect”. The “dehydration effect at 50%, 80% and 100%” value (pig oral mucosa; propane-1,2-diol solutions at concentrations 50%, 80% and 100%) was “dehydration effect was evident”, the “cell death of peripheral blood mononuclear cells at 5% (w/v)” value (PBMC) was “induced a significant cell death” and the “toxic effect / cell death of PBMCs, up to 1%” value (PBMC) was “did not have any significant toxic effect”. For the same compound, the “toxic effects / cell death at an amount according to the invention” value (PBMC) was “does not have any significant toxic effects”.
